Patent publication US7479267B2, “Cell-or organ-differentiation controllers and method of controlling morphogenesis by using the same” (Okayama Prefecture, priority 2000, dated 2009)
Read-outs that look alike come from different tables or passages of the source.

What was measured:
[1] = test system: Arabidopsis thaliana late-flowering mutant fca; type: in vivo
Protocol: (§1) Arabidopsis thaliana late-flowering mutant fca (Accession No. N167) obtained from Arabidopsis Stock Center publicly established at the University of Nottingham (U.K.) and wild type plant Ler (Accession No. NW20) were grown at 23° C. under a day length condition of 16-h light/8-h dark cycle at 100 μE/m^2 light intensity and used in the experiments. As a medium, soil consisting of 2 Vermiculite (Asahi Kogyo), 2 Kureha molding for raising seedlings (KUREHA chemical industry Co., Ltd.) and 1 Vermiculite (Asahi Kogyo), which are stacked in layer as the lower, middle and the upper layers, respectively, was used.
(§2) BSO was dissolved in water at a final concentration of 10^−1M and used as a stock solution. Then, the treatment solutions at 10^−3-10^−7M were prepared from the stock solution (FIGS. 1-3). Two to three plants were placed per a pot (about 40×50 mm) and the treatment solution was added dropwise around the shoot apex at 5 ml/day per a pot. The treatment was performed on day 0 (the initiation date of treatment), 1, 3, 5 and 7, which set of treatments was regarded as one processing.
(§3) Glutathione treatment was performed after dissolving glutathione into the BSO solution at a concentration of 10^−4 M.
(§4) The effect of treatment was estimated based on the number of rosette leaves and the elongation rate of floral stem. […] Cold treatment was performed at 4° C. concurrently with a chemical treatment.
(§5) (3) BSO treatment and glutathione (GSH) treatment was concurrently performed. BSO solution (concentration: 10^−4 M) to which glutathione was added was used in the same manner as described above.
(§6) An aqueous solution of hydrogen peroxide was prepared immediately before use. Two to three plants were placed per a pot (about 40×50 mm). On 17 days after imbibition and thereafter, the treatment solution was added dropwise around the shoot apex at 5 ml/day per a pot. The treatments were performed on day 0 (the initiation date of treatment), 1, 3, 5 and 7, which set of treatments was regarded as one processing. The time of floral transition was compared using the rosette leaf number as an index. […] The values are expressed as mean±standard error.
as §6, with “As a redox-state regulator” for “An aqueous solution”, “cells, KCN or NaN3 was used. KCN or sodium azide” for “hydrogen peroxide”, “use and used at concentrations described in FIG. 6 or 7, respectively.” for “use.”, “mm)” for “mm). On 17 days after imbibition”, “and” for “and thereafter, the”, “pot. KCN or NaN3 treatment was started 17 days after imbibition.” for “pot.”

[2] = test system: Arabidopsis thaliana wild type plant Ler; experiment: Regulation of flowering time in wild type plant Ler; type: in vivo
Protocol: as §1, §2, §3, §4, §5

[3] = test system: Arabidopsis thaliana late-flowering mutant fca; type: in vivo; remark: listed apart in the source
Protocol: as §1, §2
The effect of treatment was estimated based on the number of rosette leaves and the elongation rate of floral stem. […]
An aqueous solution of hydrogen peroxide was prepared immediately before use. […] The values are expressed as mean±standard error.

[4] = test system: Nicotina tabacum L. callus; experiment: Regulation of formation of adventitious bud in callus; type: cell-based; conditions: 0.1 mM BSO, 1 mM GSH or 1 mM GSSG in adventitious formation medium; 3 weeks after induction
Protocol: Nicotina tabacum L. leaves grown aseptically was callused in a callus-inducible medium (an essential medium consisting of 1% agar and Murashige and Skoog medium (MS medium) supplied with 0.1 mg/L benzyladenine (BA) and […] naphthaleneacetic acid (NAA)). The resultant callus was transferred to an adventitious formation medium (an essential medium consisting of 1% agar and Murashige and Skoog medium (MS medium) supplied with 1 mg/L BA and […] NAA). To the adventitious-formation medium, 0.1 mM BSO, 1 mM GSH or 1 mM GSSG (oxidized glutathione) was added as a redox-state regulator. The same medium lacking in supplements was prepared and used as a control medium.

[5] = test system: Zinnia elegans L. (cv. Scarlet Frame); conditions: 60 mM hydrogen peroxide; 2 days after imbibition (FIG. 9)
Protocol: Soft papers were laid in plastic dishes (100×15 mm) and seeded with Zinnia elegans L. (cv. Scarlet Frame) (15 seeds/dish). To the dish was added a solution of hydrogen peroxide up to 15 ml, and allowed to germinate (light condition, 50 μE/m^2, 16-h light/8-h dark cycle; temperature 27° C.). Aqueous solutions each containing hydrogen peroxide at the concentrations indicated in FIG. 9 were prepared immediately before use and applied to the seeds. Observation was performed on 2 days after imbibition (see FIG. 9). In the figure, the concentration of hydrogen peroxide (unit: mM) used in treatment is shown at the right downside of each panel.

[6] = test system: Arabidopsis thaliana wild type plant Ler; conditions: hydrogen peroxide 10^−3M; 23° C.; 1 week after imbibition; microscope
Protocol: Soft papers were laid in plastic dishes (100×15 mm) and seeded with Arabidopsis thaliana wild type plant Ler. To the dish was added 15 ml of an aqueous solution of hydrogen peroxide (10^−3M) for imbibition. Germination was allowed to arise at 23° C. and the root hair formation was observed 1 week after imbibition under a microscope.

[7] = test system: Glycine max (cv: Tanbaguro); conditions: hydrogen peroxide 10^−3M; 23° C.; 1 week after imbibition; microscope
Protocol: Soft papers were laid in plastic dishes (100×15 mm) and seeded with Glycine max (cv: Tanbaguro). To the dish was added 15 ml of an aqueous solution of hydrogen peroxide (10^−3M) for imbibition.

[8] = test system: Triticum aesivum L. (cv. Shirasagi); conditions: 144 hours (6 days) after imbibition; hydrogen peroxide concentrations of FIG. 8
From the text: Soft papers were laid in plastic dishes (100×15 mm), and seeded with Triticum aesivum L. (cv. Shirasagi) or Oryza sativa L. (cv. Nipponbare) (15 seeds/dish). […] In the figure, the values are expressed as mean±standard error.

CCCCS(=N)(=O)CCC(N)C(=O)O [BSO, L-buthionine sulfoximine]
flowering time ([1]; fca, BSO treatment started 12 days after imbibition (FIG. 1A)): delayed
rosette leaf number compared with the water treated control group ([1]; fca, BSO treatment started 17 days after imbibition, result 1 week afterward (FIG. 1C)): decreased
bolting ([2]; Ler grown in an agar medium containing BSO just after germination): the bolting was delayed
transition to flowering ([2]; Ler, BSO treatment started 12 days after imbibition (FIG. 1B)): significantly accelerated
elongation rate of floral stem ([3]; fca, BSO treatment started day 17, monitored for several months (FIG. 2)): faster than that of control group
Adventitious buds/callus [4]: 30 or more buds/callus

N[C@@H](CCC(=O)N[C@@H](CS)C(=O)NCC(=O)O)C(=O)O [GSH, glutathione]
transition to flowering at 1 mM GSH ([1]; in vivo): delay of the transition to flowering
transition to flowering with increasing GSH concentration ([1]; in vivo): acceleration of the transition to flowering as GSH concentration increased first
transition to flowering with increasing GSH concentration ([2]; Ler, GSH given concurrently with BSO 10^−4 M, at the time when BSO accelerates flowering (FIG. 3A)): delay of the transition to flowering as GSH concentration increased
Adventitious buds/callus [4]: 2-3 buds/callus

OO [hydrogen peroxide]
time of floral transition based on the rosette leaf number ([1]; in vivo): accelerated
elongation rate of floral stem ([3]; in vivo): accelerated
cotyledon opening [5]: occurred earlier
order of emergence of cotyledons and root at germination [5]: cotyledons came out from the pericarp before root did
root hair formation [6]: not in the dish treated with hydrogen peroxide solution
root hair formation [7]: not in the dish treated with hydrogen peroxide solution
cell elongation (length of coleoptile) [8]: cells were elongated

oxidized glutathione [GSSG]
Adventitious buds/callus [4]: 2-3 buds/callus
